# Measured values as given in BindingDB's records for doi:10.1021/acs.biochem.7b00078 (The University of Queensland, 2017).
# Peptide text beside a SMILES is read from it. * marks the point of attachment. FITC = O=C1OC2(c3ccc(O)cc3Oc3cc(O)ccc32)c2ccc(NC(=S)*)cc21; Biotin = O=C1N[C@H]2[C@H](CS[C@H]2CCCCC(=O)*)N1
# Columns and labels:
# [1] = biological target: T1, Na(+)/H(+) exchange regulatory cofactor NHE-RF1 [133-300] (Homo sapiens, UniProt O14745); assay: Fluorescent Polarization Competition Assay; details: 23 °C
# T1 construct: 133-300
# T1 sequence (O14745 whole entry): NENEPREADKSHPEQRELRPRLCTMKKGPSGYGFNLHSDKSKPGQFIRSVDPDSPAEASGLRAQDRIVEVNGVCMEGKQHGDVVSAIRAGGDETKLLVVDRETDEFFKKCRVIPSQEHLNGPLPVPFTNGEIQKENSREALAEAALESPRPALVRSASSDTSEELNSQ
# Protocol: (§1) Competition assays were performed in FP buffer (DTT was avoided for Cys-PTHRct-9) containing fixed concentrations of both the fluorescently labeled peptide andprotein following the protocol described by Madden and coworkers. [Cushing et al., Biochemistry, 47:10084-10098] This mixture was equilibrated for 20 min in the dark at room temperature. The unlabeled competitor peptide was dissolved and serially diluted in storage buffer supplemented with 5% DMSO (Sigma). Each serial dilution was aliquoted at 1/10 final volume, to which was added 9/10 volume of the protein/peptide mixture. All FP assays were performed in a 96-well format. Polarized fluorescence intensities were measured at 23 °C with a PerkinElmer Wallac Victor3 multilabel counter using excitation and emission wavelengths of 485 and 535 nm, respectively, for the FITC-labeled peptide.
# [2] = biological target: T2, Na(+)/H(+) exchange regulatory cofactor NHE-RF1 [1-140] (Homo sapiens, UniProt O14745); assay: Surface Plasmon Resonance (SPR); details: pH 7.4; 15 °C
# T2 construct: 1-140
# T2 sequence (O14745 whole entry): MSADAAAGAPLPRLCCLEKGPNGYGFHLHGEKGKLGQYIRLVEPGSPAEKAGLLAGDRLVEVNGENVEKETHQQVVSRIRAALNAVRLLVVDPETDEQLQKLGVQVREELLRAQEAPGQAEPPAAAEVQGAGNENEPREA
# Protocol: (§2) SPR measurements were performed with a Biacore X100 instrument (GE Healthcare Life Sciences, Piscataway, NJ) at 15.0 °C. The biotinylated PTHRct-22 ligand was immobilized on an SA streptavidin sensor chip (GE Healthcare Life Sciences) usingthe manufacturer's protocol until the desired response target was reached. PDZ1 or PDZ2 analyte, dissolved in 10 mM HEPES buffer (pH 7.4), 150 mM NaCl, 3 mM EDTA, and 0.005% surfactant polysorbate 20, was injected on the PTHRct-coated sensor surface at increasing concentrations from 10 nM to 100 μM. At the end of each ligand injection−dissociation cycle, the sensor chip was regenerated with 4.0 M MgCl2, 50 mM triethylamine (pH 9.15), and HBS-EP buffer.
# [3] = biological target: T1, Na(+)/H(+) exchange regulatory cofactor NHE-RF1 [133-300]; assay: Surface Plasmon Resonance (SPR); details: pH 7.4; 15 °C
# Protocol: as §2
# [4] = biological target: T2, Na(+)/H(+) exchange regulatory cofactor NHE-RF1 [1-140]; assay: Fluorescent Polarization Competition Assay; details: 23 °C
# Protocol: as §1
# [5] = biological target: T2, Na(+)/H(+) exchange regulatory cofactor NHE-RF1 [1-140]; assay: Isothermal Titration Calorimetry (ITC); details: pH 8; 25 °C
# Protocol: (§3) ITC measurements were conducted on a Microcal iTC200 (Malvern Instruments) in buffer consisting of 25 mM Tris (pH 8.0) and 100 mM NaCl. Proteins were exchanged into ITC buffer by gel filtration using a Superdex200 column. Wild-type modified synthetic peptides were purchased from Genscript and are described in Results. One millimolar PTHR peptides (wild-type and mutant variants) were titrated into 100 μM individual proteins, PDZ1 or PDZ2, at 25 °C.
# [6] = biological target: T1, Na(+)/H(+) exchange regulatory cofactor NHE-RF1 [133-300]; assay: Isothermal Titration Calorimetry (ITC); details: pH 8; 25 °C
# Protocol: as §3
compound,measurement,setting,value
CSCC[C@H](NC(=O)[C@@H](NC(=O)[C@@H](NC(=O)[C@H](CCC(=O)O)NC(=O)[C@H](Cc1c[nH]c2ccccc12)NC(=O)[C@H](CCC(=O)O)NC(=O)[C@H](CCC(=O)O)NC(=O)[C@H](CCC(N)=O)NC(=O)[C@H](CC(C)C)NC(=O)[C@H](CC(C)C)NC(=O)[C@H](C)NC(=O)[C@@H]1CCCN1C(=O)[C@@H]1CCCN1C(=O)[C@H](CCCNC(=N)N)NC(=O)[C@H](CCC(=O)O)NC(=O)[C@@H]1CCCN1C(=O)[C@H](CS)NC(=O)[C@H](CO)NC(=O)[C@H](C)NC(=O)[C@H](CCC(=O)O)NC(=O)[C@H](CCC(=O)O)NC(=O)[C@H](CC(=O)O)NC(=O)CCCC[C@@H]1SC[C@@H]2NC(=O)N[C@@H]21)[C@@H](C)O)C(C)C)C(=O)O (Biotin-DEEASCPERPPALLQEEWETVM-OH),Ki,[1]; pH 7.4,7 µM
same,Kd,[2],16 µM
same,Kd,[3],11.5 µM
H-LQEEWETVM-OH [LQEEWETVM],Ki,[4]; pH 7.4,1.4 µM
CSCC[C@H](NC(=O)[C@@H](NC(=O)[C@@H](NC(=O)[C@H](CCC(=O)O)NC(=O)[C@H](Cc1c[nH]c2ccccc12)NC(=O)[C@H](CCC(=O)O)NC(=O)[C@H](CCC(=O)O)NC(=O)[C@H](CCC(N)=O)NC(=O)[C@H](CC(C)C)NC(=S)Nc1ccc2c(c1)C(=O)OC21c2ccc(O)cc2Oc2cc(O)ccc21)[C@@H](C)O)C(C)C)C(=O)O [FITC-LQEEWETVM] ({FITC}-LQEEWETVM-OH),Kd,[4]; pH 7,1 µM
same,Kd,[1]; pH 7,0.6 µM
H-QEEWETVM-OH [QEEWETVM],Kd,[5],11.7 µM
same,Kd,[6],9.7 µM
